Data published in patent US12036230B2, “PTEN inhibitors for treatment and prevention of bone marrow loss” (NISIBIS, LLC-S, priority 2020, dated 2024).
Like-named read-outs stand apart in the source and are kept apart here. Numbered stars: 1 amine (or outer) side, 2 acyl side, 3 side chain; on linkers, the order of the positions; unused ones are H or OH. Bridge positions count the residues as written; N and C are the ends. Square brackets hold non-standard residues; d marks the D form. Peptide text beside a SMILES is read from it. Orn = NCCC[C@H](N)C(=O)O; X1 = O=C(CCC[*:2])[*:1]; Mpa = O=C(O)CCS

Target: T1, Human recombinant PTEN (Homo sapiens, UniProt P60484)
T1 construct: host or cells: Escherichia coli
T1 sequence (P60484 whole entry): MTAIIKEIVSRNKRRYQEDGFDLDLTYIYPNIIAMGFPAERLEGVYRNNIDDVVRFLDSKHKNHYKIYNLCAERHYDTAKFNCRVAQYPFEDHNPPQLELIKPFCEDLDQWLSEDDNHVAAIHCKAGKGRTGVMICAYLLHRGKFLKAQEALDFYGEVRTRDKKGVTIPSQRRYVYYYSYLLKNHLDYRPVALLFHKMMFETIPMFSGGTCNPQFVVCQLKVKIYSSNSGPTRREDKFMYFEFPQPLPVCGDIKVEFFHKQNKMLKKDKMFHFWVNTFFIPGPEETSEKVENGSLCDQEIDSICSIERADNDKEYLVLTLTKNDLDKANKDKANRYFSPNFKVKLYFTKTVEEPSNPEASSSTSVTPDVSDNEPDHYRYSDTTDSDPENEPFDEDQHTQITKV
Assay: PTEN inhibitor screen: conversion of DiFMUP to DiFMU by recombinant PTEN, spectrofluorometric
Assay type: biochemical
Procedure: Candidate PTEN inhibitor compounds were identified and screened for PTEN inhibition in vitro. Human recombinant PTEN purified from Escherichia coli was assayed for conversion of synthetic phosphotyrosine analog 6,8-difluoro-4-methylumbelliferyl phosphate (DiFMUP) to 6,8-difluoro-7-hydroxy-4-methylcoumarin (DiFMU) in the presence of the various candidate PTEN inhibitors. The reaction was carried out at 37° C. for 1 hour in a reaction mixture containing 100 μM of DiFMUP, 50 mM Tris-HCl (pH 8.5), 0.01% bovine serum albumin, 1 mM dithiothreitol, and 2 mM ethylenediaminetetraacetic acid. PTEN activity was measured by spectrofluorometric quantitation of increasing DiFMU over time.

[1] = 100 μM DiFMUP, 37° C., 1 hour, pH 8.5, read-out: IC50
[2] = candidate PTEN inhibitor at 10 μM, 100 μM DiFMUP, 37° C., 1 hour, pH 8.5, read-out: % Inhibition
[3] = candidate PTEN inhibitor at 10 μM, 100 μM DiFMUP, 37° C., 1 hour, pH 8.5

Molecule	IC50 [1]	inhibition at 10 µM [2]	% Inhibition [3]	IC50	inhibition at 10 µM (pH 8.5)
CC[C@H](C)[C@@H]1NC(=O)[C@H](Cc2ccc(OC)cc2)NC(=O)CCCSC[C@@H](C(=O)N2CCC[C@H]2C(=O)N[C@@H](CC(C)C)C(=O)NCC(N)=O)NC(=O)[C@H](CC(N)=O)NC(=O)[C@H](CCC(N)=O)NC1=O [carbetocin] (Y(Me)IQNCPLG-NH2; linker N-5 via X1)	> 10 µM	1%	–	–	–
C=C1CC[C@H]2[C@@H](/C=C(\C)C(=O)[C@@]3(OC(C)=O)C[C@H](C)[C@H](OC(=O)c4ccccc4)[C@@H]3[C@H]1OC(C)=O)C2(C)C [diacetyl benzoyl lathyrol]	> 10 µM	–	25%	–	–
CC(C)c1c(C(=O)Nc2ccccc2)c(-c2ccccc2)c(-c2ccc(F)cc2)n1CC[C@@H](O)C[C@@H](O)CC(=O)O [atorvastatin]	> 10 µM	4%	–	–	–
CCOc1ccc(C[C@H]2NC(=O)CCSSC[C@@H](C(=O)N3CCC[C@H]3C(=O)N[C@@H](CCCN)C(=O)NCC(N)=O)NC(=O)[C@H](CC(N)=O)NC(=O)[C@H]([C@@H](C)O)NC(=O)[C@H]([C@@H](C)CC)NC2=O)cc1 [atosiban] ([Mpa][dY](Et)ITNCP[Orn]G-NH2; disulfide 1-6)	–	12%	–	> 10 µM	–
CCc1c(Cl)c(O)c(Cl)c(O)c1C(=O)O[C@H]1[C@H](O)[C@H](OC)[C@H](OC/C2=C\C=C\C[C@H](O)/C(C)=C/[C@H](CC)[C@@H](O[C@@H]3OC(C)(C)[C@@H](OC(=O)C(C)C)[C@H](O)[C@@H]3O)/C(C)=C/C(C)=C/C[C@@H]([C@@H](C)O)OC2=O)O[C@@H]1C [fidaxomicin]	> 10 µM	11%	–	–	–
C[C@H](N)C(=O)NCC(=O)N[C@H]1CSSC[C@@H](C(=O)O)NC(=O)[C@H](CO)NC(=O)[C@H]([C@@H](C)O)NC(=O)[C@H](Cc2ccccc2)NC(=O)[C@H]([C@@H](C)O)NC(=O)[C@H](CCCCN)NC(=O)[C@H](Cc2c[nH]c3ccccc23)NC(=O)[C@H](Cc2ccccc2)NC(=O)[C@H](Cc2ccccc2)NC(=O)[C@H](CC(N)=O)NC(=O)[C@H](CCCCN)NC1=O [somatostatin]	–	–	–	> 10 µM	5%
Cyanocobalamin	3.08 µM	–	85%	–	–
Cc1ccccc1-c1cc(N2CCN(C)CC2)ncc1N(C)C(=O)C(C)(C)c1cc(C(F)(F)F)cc(C(F)(F)F)c1 [netupitant]	> 10 µM	12%	–	–	–
Verteporfin	5.71 µM	–	98%	–	–
Cc1cc2nc3c(=O)[nH]c(=O)nc-3n(C[C@H](O)[C@H](O)[C@H](O)COP(=O)(O)OP(=O)(O)OC[C@H]3O[C@@H](n4cnc5c(N)ncnc54)[C@H](O)[C@@H]3O)c2cc1C [flavin adenine dinucleotide]	> 10 µM	13%	–	–	–
CO[C@H]1C[C@@H]2CC[C@@H](C)[C@@](O)(O2)C(=O)C(=O)N2CCCC[C@H]2C(=O)O[C@H]([C@H](C)C[C@@H]2CC[C@@H](O)[C@H](OC)C2)CC(=O)[C@H](C)/C=C(\C)[C@@H](O)[C@@H](OC)C(=O)[C@H](C)C[C@H](C)/C=C/C=C/C=C/1C [sirolimus]	> 10 µM	3%	–	–	–
Candicidin	1.63 µM	–	91%	–	–
O=C(OC[C@H]1O[C@@H](OC(=O)c2cc(O)c(O)c(OC(=O)c3cc(O)c(O)c(O)c3)c2)[C@H](OC(=O)c2cc(O)c(O)c(OC(=O)c3cc(O)c(O)c(O)c3)c2)[C@@H](OC(=O)c2cc(O)c(O)c(OC(=O)c3cc(O)c(O)c(O)c3)c2)[C@@H]1OC(=O)c1cc(O)c(O)c(OC(=O)c2cc(O)c(O)c(O)c2)c1)c1cc(O)c(O)c(OC(=O)c2cc(O)c(O)c(O)c2)c1 [tannic acid]	0.34 µM	92%	–	–	–
C#C[C@]1(O)CC[C@H]2[C@@H]3CCC4=CC(=O)CC[C@@H]4[C@H]3C(=C)C[C@@]21CC [etonogestrel]	> 10 µM	2%	–	–	–
Clc1ccc(C(c2ccccc2Cl)C(Cl)Cl)cc1 (stereo not shown) [mitotane]	> 10 µM	13%	–	–	–
CC(=O)O[C@H]1C[C@@H]2CC[C@@H]3[C@H](CC[C@@]4(C)[C@H]3C[C@H]([N+]3(C)CCCCC3)[C@@H]4OC(C)=O)[C@@]2(C)C[C@@H]1[N+]1(C)CCCCC1 [pancuronium]	> 10 µM	11%	–	–	–
O=C(O)CN(CC(=O)O)Cc1cc2c(cc1O)Oc1cc(O)c(CN(CC(=O)O)CC(=O)O)cc1C21OC(=O)c2ccccc21 [Oftasceine]	> 10 µM	37%	–	–	–
Cc1cc(-c2ccc(/N=N/c3c(S(=O)(=O)O)cc4cc(S(=O)(=O)O)cc(N)c4c3O)c(C)c2)ccc1/N=N/c1c(S(=O)(=O)O)cc2cc(S(=O)(=O)O)cc(N)c2c1O [trypan blue free acid]	4.41 µM	79%	–	–	–
CCC[C@H](NC(=O)[C@@H]1[C@H]2CCC[C@H]2CN1C(=O)[C@@H](NC(=O)[C@@H](NC(=O)c1cnccn1)C1CCCCC1)C(C)(C)C)C(=O)C(=O)NC1CC1 [telaprevir]	–	–	–	> 10 µM	3%
C[C@@H]1CC(=O)NN=C1c1ccc(NN=C(C#N)C#N)cc1 [Levosimendan]	> 10 µM	24%	–	–	–

More lines, main results first:

IC50 [1]	inhibition at 10 µM [2]	% Inhibition [3]	Molecule	IC50	inhibition at 10 µM (pH 8.5)
> 10 µM	16%	–	COc1ccc(CC2c3cc(OC)c(OC)cc3CC[N+]2(C)CCC(=O)OCCCCCOC(=O)CC[N+]2(C)CCc3cc(OC)c(OC)cc3C2Cc2ccc(OC)c(OC)c2)cc1OC (stereo not shown) [atracurium besylate]	–	–
1.79 µM	85%	–	CCCCCCCC/C=C\CCCCCCCC(=O)O[C@H](COC(=O)CCCCCCCCCCCCCCC)COP(=O)(O)OCC(O)CO (mixture of isomers) [1-palmitoyl-2-oleoyl-sn-glycero-3-(phospho-rac-(1-glycerol))]	–	–
3.99 µM	–	71%	CCCCCCCCCCCCCC(=O)OCC(COP(=O)(O)OCC(O)CO)OC(=O)CCCCCCCCCCCCC (racemic) [DL-dimyristoylphosphatidylglycerol]	–	–
2.96 µM	74%	–	CC1(C)C(/C=C/C=C/C=C/C=C2\N(CCCCS(=O)(=O)O)c3ccc4ccccc4c3C2(C)C)=[N+](CCCCS(=O)(=O)[O-])c2ccc3ccccc3c21 [indocyanine green acid form]	–	–
2.77 µM	80%	–	CO[C@H]1O[C@H](COS(=O)(=O)O)[C@@H](O[C@@H]2O[C@@H](C(=O)O)[C@@H](O[C@H]3O[C@H](COS(=O)(=O)O)[C@@H](O[C@@H]4O[C@H](C(=O)O)[C@@H](O[C@H]5O[C@H](COS(=O)(=O)O)[C@@H](O)[C@H](O)[C@H]5NS(=O)(=O)O)[C@H](O)[C@H]4O)[C@H](OS(=O)(=O)O)[C@H]3NS(=O)(=O)O)[C@H](O)[C@H]2OS(=O)(=O)O)[C@H](O)[C@H]1NS(=O)(=O)O [Fondaparinux]	–	–
> 10 µM	33%	–	CO[C@H]1C[C@@H]2CC[C@@H](C)[C@@](O)(O2)C(=O)C(=O)N2CCCC[C@H]2C(=O)O[C@H]([C@H](C)C[C@@H]2CC[C@@H](OCCO)[C@H](OC)C2)CC(=O)[C@H](C)/C=C(\C)[C@@H](O)[C@@H](OC)C(=O)[C@H](C)C[C@H](C)/C=C/C=C/C=C/1C [Everolimus]	–	–
> 10 µM	5%	–	CC(C)(C)CC(C)(C)c1cc(Cc2cc(C(C)(C)CC(C)(C)C)cc(-n3nc4ccccc4n3)c2O)c(O)c(-n2nc3ccccc3n2)c1 [bisoctrizole]	–	–
> 10 µM	19%	–	CCC1=C[C@@H]2CN(C1)Cc1c([nH]c3ccccc13)[C@@](C(=O)OC)(c1cc3c(cc1OC)N(C)[C@H]1[C@@](O)(C(=O)OC)[C@H](OC(C)=O)[C@]4(CC)C=CCN5CC[C@]31[C@@H]54)C2 [vinorelbine]	–	–
> 10 µM	24%	–	CC(C)c1nc(CN(C)C(=O)N[C@@H](CCN2CCOCC2)C(=O)N[C@H](CC[C@H](Cc2ccccc2)NC(=O)OCc2cncs2)Cc2ccccc2)cs1 [Cobicistat]	–	–
> 10 µM	1%	–	O=C1CCCC(=O)C1C(=O)c1ccc(C(F)(F)F)cc1[N+](=O)[O-] [nitisinone]	–	–
> 10 µM	–	2%	hyaluronic acid	–	–
> 10 µM	3%	–	C[C@@H]1C/C=C/C=C/C=C/C=C/[C@H](O[C@@H]2O[C@H](C)[C@@H](O)[C@H](N)[C@@H]2O)C[C@@H]2O[C@](O)(C[C@@H](O)C[C@H]3O[C@@H]3/C=C/C(=O)O1)C[C@H](O)[C@H]2C(=O)O [natamycin]	–	–
